Results on six compounds are retold here after ChEMBL document CHEMBL1135335, “Multisubstrate analogue inhibitors of glucosamine-6-phosphate synthase from Candida albicans” (Bioorg Med Chem Lett, 2002).

The source made the active and inactive calls. The rule behind the calls is not given here.

Test system in one assay: not listed separately
Put plainly: Concentration required to inhibit glucosamine-6-phosphate synthase (GFAT) isolated from Candida albicans.
For the compound `NC(CCCCP(=O)(O)O)C(=O)O` (configuration not stated), the IC50 worked out at 250 µM.

`NC(CCCCCP(=O)(O)O)C(=O)O` (configuration not stated) [AP-7]: inhibition was half-maximal at 270 µM (IC50).

The compound `NC(CP(=O)(O)O)C(=O)O` (configuration not stated) gave a half-inhibitory concentration (IC50) of 0.01 µM.

`NC(CCCP(=O)(O)O)C(=O)O` (configuration not stated) returned an IC50 of 210 µM.

`NC(CCP(=O)(O)O)C(=O)O` (configuration not stated) had an IC50 of 10 µM.

Consider `O=C(O)[C@@H]1C[C@H](CP(=O)(O)O)CCN1` [SELFOTEL], for which the midpoint of inhibition, the IC50, lay at 0.4 µM. This IC50 is about 25-fold lower than that of the compound before.

Another assay has as its system Saccharomyces cerevisiae. Put plainly: Inhibitory activity against glucosamine-6-phosphate synthase (GFAT) isolated from Saccharomyces cerevisiae at concentrations <10 mM; NI means no inhibition.
For `NC(CP(=O)(O)O)C(=O)O` (configuration not stated), the inhibition entry was “inactive”.

By IC50 is commonly meant the concentration needed to halve the response being measured.
